ChEMBL document CHEMBL4610106, “Identification of the Clinical Development Candidate MRTX849, a Covalent KRASG12C Inhibitor for the Treatment of Cancer” (J Med Chem, 2020)
Values after ≈ are worked out from the molar mass of the structure shown.

Assays:
[1] = in vivo; details: rat, po, 30 mg/kg
[2] = Protein binding in mouse plasma; format: ADME, cell-free; details: read-out: PPB (converted)
[3] = Half life in mouse whole blood at 5 uM by LC-MS/MS analysis; format: ADME, tissue-based
[4] = in vivo; details: beagle, dog, po, 30 mg/kg
[5] = AUC (infinity) in beagle dog at 30 mg/kg, po; format: ADME, organism-based, Canis lupus familiaris; design: dose 30 mg/kg, route oral, time infinity; details: in vivo
[6] = Volume of distribution at steady state in CD1 mouse at 3 mg/kg, iv; format: ADME, organism-based; details: in vivo, read-out: Vdss
[7] = Clearance in CD1 mouse at 3 mg/kg, iv; format: ADME, organism-based; details: in vivo
[8] = Cmax in CD1 mouse at 30 mg/kg, po; format: ADME, organism-based; design: dose 30 mg/kg, route oral; details: in vivo
[9] = Cmax in beagle dog at 30 mg/kg, po; format: ADME, organism-based, Canis lupus familiaris; design: dose 30 mg/kg, route oral; details: in vivo
[10] = Half life in dog whole blood at 5 uM by LC-MS/MS analysis; format: ADME, tissue-based, Canis lupus familiaris
[11] = Drug metabolism in mouse hepatocytes assessed as peak area for metabolite formed due to biotransformation (glucuronide; GSH) at 10 uM incubated for 2 hrs by LC-MS analysis; format: ADME, cell-based, Hepatocyte
[12] = Tmax in rat at 30 mg/kg, po; format: ADME, organism-based; details: in vivo
[13] = Drug metabolism in mouse hepatocytes assessed as peak area for metabolite formed due to biotransformation (dealkylation; glucuronide; GSH) at 10 uM incubated for 2 hrs by LC-MS analysis; format: ADME, cell-based, Hepatocyte
[14] = Tmax in beagle dog at 30 mg/kg, po; format: ADME, organism-based, Canis lupus familiaris; details: in vivo
[15] = Drug metabolism in mouse hepatocytes assessed as peak area for metabolite formed due to biotransformation (dealkylation; GSH) at 10 uM incubated for 2 hrs by LC-MS analysis; format: ADME, cell-based, Hepatocyte
[16] = Clearance in beagle dog at 3 mg/kg, iv; format: ADME, organism-based, Canis lupus familiaris; details: in vivo
[17] = Protein binding in human plasma; format: ADME, cell-free; details: read-out: PPB (converted)
[18] = Half life in rat at 3 mg/kg, iv; format: ADME, organism-based; details: in vivo
[19] = Toxicity in athymic nude-Foxn1nu mouse xenografted with human MIAPaCa2 cells assessed as induction of body weight loss at 10 to 100 mg/kg, po dosed daily via gavage for 16 days; format: organism-based, MIA PaCa-2; details: in vivo, 384 h
[20] = Tmax in CD1 mouse at 30 mg/kg, po; format: ADME, organism-based; details: in vivo
[21] = Drug metabolism in mouse hepatocytes assessed as peak area for metabolite formed due to biotransformation (dealkylation; glucuronide) at 10 uM incubated for 2 hrs by LC-MS analysis; format: ADME, cell-based, Hepatocyte
[22] = Drug metabolism in mouse hepatocytes assessed as peak area for metabolite formed due to biotransformation (glucuronide) at 10 uM incubated for 2 hrs by LC-MS analysis; format: ADME, cell-based, Hepatocyte
[23] = test system: MIA PaCa-2; test: Antitumor activity against human MIAPaCa2 cells xenografted in athymic nude-Foxn1nu mouse assessed as maximally efficacious dose for induction of tumor regression at 10 to 100 mg/kg, po dosed daily via gavage for 16 days; format: functional
[24] = Half life in beagle dog at 3 mg/kg, iv; format: ADME, organism-based, Canis lupus familiaris; details: in vivo
[25] = Volume of distribution at steady state in rat at 3 mg/kg, iv; format: ADME, organism-based; details: in vivo
[26] = Half life in human whole blood at 5 uM by LC-MS/MS analysis; format: ADME, tissue-based
[27] = Half life in CD1 mouse at 3 mg/kg, iv; format: ADME, organism-based; details: in vivo
[28] = Drug metabolism in mouse hepatocytes assessed as peak area for metabolite formed due to biotransformation ( GSH) at 10 uM incubated for 2 hrs by LC-MS analysis; format: ADME, cell-based, Hepatocyte
[29] = Volume of distribution at steady state in beagle dog at 3 mg/kg, iv; format: ADME, organism-based, Canis lupus familiaris; details: in vivo, read-out: Vdss
[30] = Apparent permeability in pig LLC-PK1 cells; format: ADME, cell-based, Sus scrofa; details: read-out: permeability
[31] = Cmax in rat at 30 mg/kg, po; format: ADME, organism-based; design: dose 30 mg/kg, route oral; details: in vivo
[32] = Drug metabolism in mouse hepatocytes assessed as peak area for metabolite formed due to biotransformation (sulfate) at 10 uM incubated for 2 hrs by LC-MS analysis; format: ADME, cell-based, Hepatocyte
[33] = AUC (infinity) in rat at 30 mg/kg, po; format: ADME, organism-based; design: dose 30 mg/kg, time infinity, route oral; details: in vivo
[34] = AUC (infinity) in CD1 mouse at 30 mg/kg, po; format: ADME, organism-based; design: dose 30 mg/kg, time infinity, route oral; details: in vivo
[35] = Solubility in FaSSIF at pH 6.5; format: physicochemical

Structure (SMILES): C=C(F)C(=O)N1CCN(c2nc(OC[C@@H]3CCCN3C)nc3c2CCN(c2cccc4cccc(Cl)c24)C3)C[C@@H]1CC#N [ADAGRASIB]
- bioavailability [1]: 29.7%
- fraction unbound [2]: 0.01
- half-life at 5 µM [3]: > 50 h
- bioavailability [4]: 25.9%
- AUC(0-inf) [5]: 4470 ng·h/mL
- Vd [6]: 2.02 L/kg
- clearance [7]: 19.9 mL/min/kg
- Cmax [8]: 2410 ng/mL
- Cmax [9]: 252 ng/mL
- half-life at 5 µM [10]: > 50 h
- Drug metabolism [11]: Metabolite_Notdetected
- Tmax [12]: 2.67 h
- Drug metabolism [13]: Metabolite_Notdetected
- Tmax [14]: 4 h
- Drug metabolism [15]: Metabolite_Notdetected
- clearance [16]: 29.6 mL/min/kg
- fraction unbound [17]: 0.017
- t1/2 [18]: 2.57 h
- Activity [19]: Non-Toxic
- Tmax [20]: 1 h
- Drug metabolism [21]: Metabolite_Notdetected
- Drug metabolism [22]: Metabolite_Notdetected
- Activity [23]: 30 to 100 mg/kg
- half-life [24]: 7.56 h
- Vdss [25]: 20.7 L/kg
- half-life at 5 µM [26]: > 50 h
- half-life [27]: 1.51 h
- Drug metabolism [28]: Metabolite_Notdetected
- Vd [29]: 17.4 L/kg
- Papp [30]: 4.7 ×10⁻⁶ cm/s
- Cmax [31]: 209 ng/mL
- Drug metabolism [32]: Metabolite_Notdetected
- AUC(0-inf) [33]: 2670 ng·h/mL
- AUC(0-inf) [34]: 15900 ng·h/mL
- solubility [35]: 568 µg/mL (≈ 940 µM)
